Counter-ions that a name gives are not always drawn. Like-named read-outs stand apart in the source and are kept apart here.
Experiments:
[1] = Plasma pharmacokinetics in phase 1, open-label, fixed-sequence, 2-period drug interaction trial (MK-8591-005); type: in vivo, human; details: for C24, GMR (90%CI): Islatravir + Dolutegravir + TDF / Dolutegravir + TDF; for half-life / concentration at 24 h / AUC / Cmax / Tmax: human, oral; for half-life / concentration at 24 h / Cmax, GM (95%CI) / tmax, median (min‐max) / Apparent terminal t1/2, geometric mean (geometric CV %) / AUC / Cmax / Tmax: plasma, N = 12; for Tmax: read-out: tmax, median (min‐max)
Description: (§1) This was a phase 1, open‐label, fixed‐sequence, 2‐period trial in adults without HIV (protocol MK‐8591‐005). In period 1, participants received a single oral dose of 20 mg islatravir. In period 2, participants received multiple oral doses of 50 mg dolutegravir and 300 mg TDF once daily for 11 consecutive days (days 1‐11), with a single oral dose of 20 mg islatravir coadministered on day 8. There was a washout period of ≥7 days between islatravir dosing in period 1 and the first dose of dolutegravir and TDF in period 2 (Figure 1).
Blood samples for islatravir plasma analysis were collected before dosing and at selected time points over 96 hours following administration of islatravir on day 1 of period 1 and day 8 of period 2. In period 2, samples taken at 24, 48, and 72 hours for islatravir plasma analysis were collected before dose administration of dolutegravir and TDF. Blood samples for plasma analysis of dolutegravir and tenofovir were collected before dosing on days 1, 7, and 8 of period 2 and at selected time points over 24 hours after dosing on days 7 and 8 of period 2. The 24 hour samples for dolutegravir and tenofovir analysis for days 7 and 8 were collected before dosing of dolutegravir and TDF.
Plasma concentrations of islatravir, dolutegravir, and tenofovir were determined by inVentiv Health Clinique (Québec City, Québec, Canada) using validated high‐performance liquid chromatography coupled to tandem mass spectrometry methods.
Islatravir (m/z 294.000/154.000) was extracted using an automated protein precipitation method using [^13C,^15N3]‐ISL as internal standard (m/z 297.800/158.000). The extracted samples were assessed on a system equipped with a X Select HSS T3 C18, 50×2.1 mm, 2.5 μm column with water/acetonitrile with formic acid mobile phase. […] The lower limit of quantitation for islatravir was 0.10 ng/mL, with an analytical range of 0.10 to 100.00 ng/mL.
Dolutegravir (m/z 420.200/277.200) was extracted using an automated protein precipitation method using [C^13‐d5]‐dolutegravir as the internal standard (m/z 426.300/277.300). The extracted samples were assessed on a system equipped with an ACE 3 C18, 30 × 4.6 mm, 3 μm column (Avantor, Radnor, Pennsylvania) with water/methanol with ammonium formate and formic acid mobile phase. […] The lower limit of quantitation for dolutegravir was 10.00 ng/mL, with an analytical range of 10.00 to 10 000.00 ng/mL.
Tenofovir (m/z 288.200/176.200) was extracted using an automated solid phase extraction using tenofovir‐d6 as internal standard (m/z 294.100/182.300). The extracted samples were assessed on a system equipped with an Atlantis dC18, 75 × 4.6 mm, 3 μm column (Waters Corp., Milford, Massachusetts) with water/acetonitrile with ammonium formate and formic acid mobile phase. […] The lower limit of quantitation for tenofovir was 0.50 ng/mL, with an analytical range of 0.50 to 500.00 ng/mL.
Plasma islatravir, dolutegravir, and tenofovir pharmacokinetics were summarized descriptively. Pharmacokinetic parameter values were calculated using the software Phoenix WinNonlin version 6.3 (Certara, Princeton, New Jersey). Cmax, C24, and tmax values were obtained directly from the observed plasma concentration–time data.

[2] = Safety and tolerability in the phase 1 trial (adverse event reports, laboratory tests, ECG, vital signs); type: in vivo, human; details: after administration of dolutegravir and TDF; of 12 participants
Description: as §1
Safety and tolerability were monitored by repeated clinical and laboratory evaluations for the duration of the trial. Safety evaluations included adverse event (AE) reports, laboratory tests, 12‐lead electrocardiograms, and vital signs.
Incidence of adverse experiences was descriptively summarized.

[3] = set-up: method as in PMID 19884365; details: once-daily multiple dosing; cited from earlier work
[4] = in vivo; cited from earlier work
[5] = steady state, 50 mg dolutegravir + 300 mg TDF once daily days 1-7, period 2, without islatravir, read-out: Apparent terminal t1/2, geometric mean (geometric CV %) (converted)
[6] = steady state, 50 mg dolutegravir + 300 mg TDF once daily days 1-7, period 2, without islatravir, read-out: Apparent terminal t1/2, AM (SD) (converted)
[7] = steady state, 50 mg dolutegravir + 300 mg TDF once daily days 1-7, period 2, without islatravir, read-out: C24, AM (SD)
[8] = steady state, 50 mg dolutegravir + 300 mg TDF once daily days 1-7, period 2, without islatravir, read-out: C24, GM (95%CI)
[9] = 50 mg dolutegravir + 300 mg TDF once daily with single 20 mg islatravir on day 8, period 2, read-out: C24, AM (SD)
[10] = 50 mg dolutegravir + 300 mg TDF once daily with single 20 mg islatravir on day 8, period 2, read-out: C24, GM (95%CI)
[11] = steady state, 50 mg dolutegravir + 300 mg TDF once daily days 1-7, period 2, without islatravir
[12] = 50 mg dolutegravir + 300 mg TDF once daily with single 20 mg islatravir on day 8, period 2

Structure (SMILES) | C24, GMR (90%CI) [1] | half-life [1, 5] [h] | half-life [1, 6] [h] | concentration at 24 h [1, 7] [ng/mL] | concentration at 24 h [1, 8] [ng/mL] | concentration at 24 h [1, 9] [ng/mL] | concentration at 24 h [1, 10] [ng/mL] | Apparent terminal t1/2, geometric mean (geometric CV %) [1, 12] | participants reporting AEs considered drug-related [2] [participants] | further results
C[C@@H]1CCO[C@H]2Cn3cc(C(=O)NCc4ccc(F)cc4F)c(=O)c(O)c3C(=O)N12 [Dolutegravir] | 1.10 (1.03‐1.17) | 15.2 | 15.3 | 1220 | 1120 | 1310 | 1240 | 15.5 (16.2) h | 3 | half-life ([1]; 50 mg dolutegravir + 300 mg TDF once daily with single 20 mg islatravir on day 8, period 2, read-out: Apparent terminal t1/2, AM (SD) (converted)): 15.7 h; Cmax, GM (95%CI) [1, 11]: 3500 (2770‐4430) ng/mL; tmax, median (min‐max) [1, 11]: 2.50 (0.50‐4.13) h; Cmax, GM (95%CI) [1, 12]: 3570 (2950‐4330) ng/mL; tmax, median (min‐max) [1, 12]: 3.00 (1.00‐6.03) h; time to steady‐state concentrations [3]: ≤ 5 days
CC(C)OC(=O)OCOP(=O)(CO[C@H](C)Cn1cnc2c(N)ncnc21)OCOC(=O)OC(C)C [TDF, tenofovir disoproxil fumarate] |  |  |  |  |  |  |  |  | 3 | 
C[C@H](Cn1cnc2c(N)ncnc21)OCP(=O)(O)O [Tenofovir] | 1.05 (0.97‐1.14) | 13.7 | 13.8 | 43.6 | 42.6 | 45.3 | 44.8 | 13.2 (11.0) h |  | AUC ([1]; steady state, 50 mg dolutegravir + 300 mg TDF once daily days 1-7, period 2, without islatravir, read-out: AUC0‐24, AM (SD)): 2250 ng·h/mL; AUC ([1]; steady state, 50 mg dolutegravir + 300 mg TDF once daily days 1-7, period 2, without islatravir, read-out: AUC0‐24, GM (95%CI)): 2220 ng·h/mL; Cmax ([1]; steady state, 50 mg dolutegravir + 300 mg TDF once daily days 1-7, period 2, without islatravir, read-out: Cmax, AM (SD)): 346 ng/mL; Cmax ([1]; steady state, 50 mg dolutegravir + 300 mg TDF once daily days 1-7, period 2, without islatravir, read-out: Cmax, GM (95%CI)): 339 ng/mL; Tmax [1, 11]: 1 h; AUC ([1]; 50 mg dolutegravir + 300 mg TDF once daily with single 20 mg islatravir on day 8, period 2, read-out: AUC0‐24, AM (SD)): 2350 ng·h/mL; AUC ([1]; 50 mg dolutegravir + 300 mg TDF once daily with single 20 mg islatravir on day 8, period 2, read-out: AUC0‐24, GM (95%CI)): 2330 ng·h/mL; Cmax ([1]; 50 mg dolutegravir + 300 mg TDF once daily with single 20 mg islatravir on day 8, period 2, read-out: Cmax, AM (SD)): 343 ng/mL; Cmax ([1]; 50 mg dolutegravir + 300 mg TDF once daily with single 20 mg islatravir on day 8, period 2, read-out: Cmax, GM (95%CI)): 333 ng/mL; Tmax [1, 12]: 1.01 h; time to steady‐state concentrations [4]: ≤ 7 days

Reference: article PMC9298070, “Lack of a Clinically Meaningful Drug Interaction Between the HIV‐1 Antiretroviral Agents Islatravir, Dolutegravir, and Tenofovir Disoproxil Fumarate” (Clinical Pharmacology in Drug Development, 2021)
